Experimental data reported in ChEMBL document CHEMBL5346958 (J Med Chem, 2023).
Substitutions are numbered along the chain they refer to.

Assays:
[1] = target: T1, Aldo-keto reductase family 1 member C1 (Homo sapiens, UniProt Q04828); assay: Inhibition of recombinant AKR1C1 (unknown origin) dehydrogenase activity by measuring NADH formation by spectrophotometry
T1 sequence (Q04828 whole entry): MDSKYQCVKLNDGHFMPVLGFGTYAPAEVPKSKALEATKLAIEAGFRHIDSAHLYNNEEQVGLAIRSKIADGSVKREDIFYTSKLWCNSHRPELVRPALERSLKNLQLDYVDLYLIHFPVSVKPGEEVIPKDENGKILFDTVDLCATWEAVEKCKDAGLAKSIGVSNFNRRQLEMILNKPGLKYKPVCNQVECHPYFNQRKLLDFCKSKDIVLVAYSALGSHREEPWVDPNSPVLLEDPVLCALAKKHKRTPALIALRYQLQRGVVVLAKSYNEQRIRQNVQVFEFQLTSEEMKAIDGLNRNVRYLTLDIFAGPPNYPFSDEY

[2] = species on record: Homo sapiens; assay: Selectivity ratio of IC50 for AKR1C2 (unknown origin) to IC50 for AKR1C3 (unknown origin)
[3] = Stability on mouse plasma assessed as compound remaining measured at 30 mins; format: ADME, cell-free; details: 0.5 h
[4] = system: CWR22R; assay: Antitumor activity against human 22Rv1 cells xenografted in NSG mouse tumor model assessed as reduction in tumor volume at 50 mg/kg, ip treated for 26 days relative to control; format: functional; details: 22Rv1, 624 h, time 26 day
[5] = Cmax in BALB/c mouse at 10 mg/kg, po measured upto 24 hrs; format: ADME, organism-based; set-up: dose 10 mg/kg, time < 24 hrs, route po; details: in vivo
[6] = AUC (0 to infinity) in BALB/c mouse assessed as (E)-3-(3-(11,2,4)triazolo(1,5-alpyridin-6-y1)-5-((4-methylbenzy1)-carbamoyl)phenyl)acrylic acid at 10 mg/kg, po measured upto 24 hrs; format: ADME, organism-based; set-up: time < 24 hrs, dose 10 mg/kg, route po; details: in vivo
[7] = Prodrug conversion in mouse liver microsomes assessed as formation of (E)-3-(3-(11,2,4)triazolo(1,5-alpyridin-6-y1)-5-((4-methylbenzy1)-carbamoyl)phenyl)acrylic acid over 60 mins; format: ADME, Microsome; details: 1 h
[8] = AUC (0 to t) in BALB/c mouse assessed as (E)-3-(3-(11,2,4)triazolo(1,5-alpyridin-6-y1)-5-((4-methylbenzy1)-carbamoyl)phenyl)acrylic acid at 10 mg/kg, po measured upto 24 hrs; format: ADME, organism-based; set-up: dose 10 mg/kg, time < 24 hrs, route po; details: in vivo
[9] = system: CWR22R; assay: Antitumor activity against human 22Rv1 cells xenografted in NSG mouse tumor model assessed as reduction in tumor volume at 25 mg/kg, ip treated for 26 days relative to control; format: functional; details: 22Rv1, 624 h, time 26 day
[10] = Tmax in BALB/c mouse at 10 mg/kg, po measured upto 24 hrs; format: ADME, organism-based; details: in vivo
[11] = Prodrug conversion in human liver microsomes assessed as formation of (E)-3-(3-(11,2,4)triazolo(1,5-alpyridin-6-y1)-5-((4-methylbenzy1)-carbamoyl)phenyl)acrylic acid over 60 mins; format: ADME, Microsome; details: 1 h
[12] = Stability of compound in SIF assessed as compound remaining after 2 hrs; format: ADME; details: simulated gi fluid
[13] = Cmax in BALB/c mouse assessed as (E)-3-(3-(11,2,4)triazolo(1,5-alpyridin-6-y1)-5-((4-methylbenzy1)-carbamoyl)phenyl)acrylic acid at 10 mg/kg, po measured upto 24 hrs; format: ADME, organism-based; set-up: dose 10 mg/kg, time < 24 hrs, route po; details: in vivo
[14] = AUC (0 to t) in BALB/c mouse at 10 mg/kg, po measured upto 24 hrs; format: ADME, organism-based; set-up: time < 24 hrs, dose 10 mg/kg, route po; details: in vivo
[15] = Metabolic stability in human liver microsomes assessed as compound degradation by LC-MS/MS analysis; format: ADME, Microsome; details: read-out: Drug degradation
[16] = Stability of compound in SGF assessed as compound remaining after 1 hrs; format: ADME; details: simulated gi fluid
[17] = Metabolic stability in mouse liver microsomes assessed as compound degradation by LC-MS/MS analysis; format: ADME, Microsome; details: read-out: Drug degradation
[18] = Toxicity in NSG mouse xenografted with human 22Rv1 cells assessed as body weight loss at 25 to 50 mg/kg, ip treated for 26 days; format: organism-based, CWR22R; details: in vivo, 624 h, dose 25-50 mg/kg, time 26 day
[19] = Metabolic stability in mouse plasma assessed as formation of (E)-3-(3-(11,2,4)triazolo(1,5-alpyridin-6-y1)-5-((4-methylbenzy1)-carbamoyl)phenyl)acrylic acid; format: ADME, cell-free
[20] = Tmax in BALB/c mouse assessed as (E)-3-(3-(11,2,4)triazolo(1,5-alpyridin-6-y1)-5-((4-methylbenzy1)-carbamoyl)phenyl)acrylic acid at 10 mg/kg, po measured upto 24 hrs; format: ADME, organism-based; details: in vivo
[21] = Half life in BALB/c mouse assessed as (E)-3-(3-(11,2,4)triazolo(1,5-alpyridin-6-y1)-5-((4-methylbenzy1)-carbamoyl)phenyl)acrylic acid at 10 mg/kg, po measured upto 24 hrs; format: ADME, organism-based; details: in vivo
[22] = target: T2, Aldo-keto reductase family 1 member C3 (Homo sapiens, UniProt P42330); assay: Inhibition of AKR1C3 (unknown origin)
T2 sequence (P42330 whole entry): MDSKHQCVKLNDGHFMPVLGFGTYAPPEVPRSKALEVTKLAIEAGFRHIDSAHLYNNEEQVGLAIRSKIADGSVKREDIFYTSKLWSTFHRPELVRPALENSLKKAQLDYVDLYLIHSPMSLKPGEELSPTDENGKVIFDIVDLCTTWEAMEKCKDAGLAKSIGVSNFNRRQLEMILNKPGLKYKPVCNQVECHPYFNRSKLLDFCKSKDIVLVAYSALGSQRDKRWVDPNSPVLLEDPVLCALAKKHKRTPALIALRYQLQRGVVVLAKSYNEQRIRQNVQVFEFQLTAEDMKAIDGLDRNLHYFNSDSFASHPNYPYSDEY

[23] = target: T2, Aldo-keto reductase family 1 member C3; assay: Inhibition of recombinant AKR1C3 (unknown origin) dehydrogenase activity by measuring NADH formation by spectrophotometry
[24] = Extrapolated AUC in BALB/c mouse at 10 mg/kg, po measured upto 24 hrs; format: ADME, organism-based; details: in vivo
[25] = AUC (0 to infinity) in BALB/c mouse at 10 mg/kg, po measured upto 24 hrs; format: ADME, organism-based; set-up: time < 24 hrs, dose 10 mg/kg, route po; details: in vivo
[26] = target: T3, Aldo-keto reductase family 1 member C1 (Homo sapiens) (UniProt Q04828); assay: Inhibition of recombinant AKR1C1 (unknown origin) dehydrogenase activity at 100 uM by measuring NADH formation by spectrophotometry relative to control
T3 sequence (whole entry): T1 sequence (Q04828 whole entry)

[27] = Half life in BALB/c mouse at 10 mg/kg, po measured upto 24 hrs; format: ADME, organism-based; details: in vivo
[28] = Apparent oral clearance in BALB/c mouse at 10 mg/kg, po measured upto 24 hrs; format: ADME, organism-based; details: in vivo
[29] = Apparent volume of distribution during terminal phase in BALB/c mouse at 10 mg/kg, po measured upto 24 hrs; format: ADME, organism-based; details: in vivo
[30] = target: T4, Aldo-keto reductase family 1 member C2 (Homo sapiens, UniProt P52895); assay: Inhibition of recombinant AKR1C2 (unknown origin) dehydrogenase activity by measuring NADH formation by spectrophotometry
T4 sequence (P52895 whole entry): T1 sequence (Q04828 whole entry) with T38V, R47H, L54V, C87S, V151M, R170H, Q172L

## Cc1ccc(CNC(=O)c2cc(/C=C/C(=O)O)cc(-c3ccc4c(c3)OCCO4)c2)cc1
[1]
  IC50: > 100 µM
[2]
  Ratio IC50: 200

## C/C=C\Cc1cc(/C=C/C(=O)O)cc(C(=O)NCc2ccc(C)cc2)c1
[2]
  Ratio IC50: 200

## CC(C)=CCOc1cc(/C=C/C(=O)O)cc(C(=O)NCc2ccc(C)cc2)c1
[2]
  Ratio IC50: 187

## Cc1ccc(CNC(=O)c2cc(C#Cc3ccccc3)cc(/C=C/C(=O)O)c2)cc1
[2]
  Ratio IC50: 61

## Cc1ccc(CNC(=O)c2cc(/C=C/C(=O)O)cc(-c3ccc4c(c3)OCO4)c2)cc1
[1]
  IC50: > 100 µM

## Cc1ccc(CNC(=O)c2cc(/C=C/C(=O)O)cc(-c3cccc(F)c3)c2)cc1
[1]
  IC50: > 100 µM
[2]
  Ratio IC50: 960

## COC(=O)/C=C/c1cc(C(=O)NCc2ccc(C)cc2)cc(-c2ccc3ncnn3c2)c1
[3]
  Stability: Unstable
[4]
  inhibition in vivo at 50 mg/kg: 45%
[5]
  Cmax: 92.796 ng/mL
[6]
  AUC: 6550.1 ng·h/mL
[7]
  Drug metabolism: Metabolite_Detected
[8]
  AUCt: 6382.8 ng·h/mL
[9]
  inhibition in vivo at 25 mg/kg: 30%
[10]
  Tmax: 19 min
[11]
  Drug metabolism: Metabolite_Detected
[12]
  Stability: Stable
[13]
  Cmax: 11599.4 ng/mL
[14]
  AUCt: 36.416 ng·h/mL
[15]
  metabolised: 25%
[16]
  Stability: Stable
[17]
  metabolised: 25%
[18]
  Activity: Non-Toxic
[19]
  Drug metabolism: Metabolite_Detected
[20]
  Tmax: 12 min
[21]
  t1/2: 534 min

## CC[C@@H](NC(=O)c1cc(/C=C/C(=O)O)cc(-c2ccc(C(C)C)cc2)c1)c1ccccc1
[2]
  Ratio IC50: 51

## Cc1ccc(CNC(=O)c2cc(/C=C/C(=O)O)cc(-c3ccc4ccccc4c3)c2)cc1
[2]
  Ratio IC50: 140

## Cc1ccc(CNC(=O)c2cc(C#CC3CC3)cc(/C=C/C(=O)O)c2)cc1
[2]
  Ratio IC50: 74

## CN(CCC(=O)O)C(=O)c1ccc2c(c1)CC[C@@H]1[C@@H]2CC[C@]2(C)C(c3cncc(F)c3)=CC[C@@H]12
[22]
  IC50: 0.0018 µM

## Cc1ccc(CNC(=O)c2cc(/C=C/C(=O)O)cc(-c3ccc(-n4c5ccccc5c5ccccc54)cc3)c2)cc1
[2]
  Ratio IC50: 221

## Cc1ccc(CNC(=O)c2cc(/C=C/C(=O)O)cc(-c3ccc(Oc4ccccc4)cc3)c2)cc1
[2]
  Ratio IC50: 51

## Cc1ccc(CNC(=O)c2cc(/C=C/C(=O)O)cc(-c3ccc(F)cc3)c2)cc1
[1]
  IC50: > 100 µM
[2]
  Ratio IC50: 600

## Cc1ccc(CNC(=O)c2cc(/C=C/C(=O)O)cc(-c3ccc(CN4CCOCC4)c(F)c3)c2)cc1
[2]
  Ratio IC50: 16

## Cc1ccc(CNC(=O)c2cc(/C=C/C#N)cc(-c3ccc(Oc4ccccc4)cc3)c2)cc1
[23]
  IC50: 1.4 µM

## Cc1ccc(CNC(=O)c2cc(/C=C/C(=O)O)cc(-c3ccc4ncnn4c3)c2)cc1
[5]
  Cmax: 174.8 ng/mL
[24]
  %AUCextra: 28.8%
[25]
  AUC: 515.1 ng·h/mL
[26]
  inhibition: 8%
[27]
  t1/2: 864 min
[10]
  Tmax: 6 min
[1]
  IC50: > 100 µM
[28]
  CL/F: 323 mL/min/kg
[12]
  Stability: Stable
[2]
  Ratio IC50: 1220
[14]
  AUCt: 367.6 ng·h/mL
[16]
  Stability: Stable
[29]
  Vz/F: 405 L/kg

## C/C=C/Cc1cc(/C=C/C(=O)O)cc(C(=O)NCc2ccc(C)cc2)c1
[1]
  IC50: > 100 µM
[2]
  Ratio IC50: 354

## Cc1ccc(CNC(=O)c2cc(/C=C/C(=O)O)cc(-c3ccc(Cl)cc3)c2)cc1
[1]
  IC50: > 100 µM
[2]
  Ratio IC50: 333

## Cc1ccc(CNC(=O)c2cc(/C=C/C(=O)O)cc(CC(C)c3ccccc3)c2)cc1 (centres undefined)
[2]
  Ratio IC50: 177

## Cc1ccc(CNC(=O)c2cc(/C=C/C(=O)O)cc(-c3ccc(-c4ccccc4)cc3)c2)cc1
[2]
  Ratio IC50: 580

## Cc1ccc(CNC(=O)c2cc(/C=C/C(=O)O)cc(-c3ccc4nccnc4c3)c2)cc1
[2]
  Ratio IC50: 133

## Cc1ccc(CNC(=O)c2cc(/C=C/C(=O)O)cc(-c3ccccc3F)c2)cc1
[1]
  IC50: > 100 µM
[2]
  Ratio IC50: > 1430
[30]
  IC50: > 100 µM

## Cc1ccc(CNC(=O)c2cc(/C=C/C(=O)O)cc(-c3ccccc3)c2)cc1
[1]
  IC50: > 100 µM
[2]
  Ratio IC50: > 2500
[30]
  IC50: > 100 µM

## Cc1ccc(CNC(=O)c2cc(/C=C/C(=O)O)cc(-c3ccc(C)cc3)c2)cc1
[2]
  Ratio IC50: 160

## Cc1ccc(CNC(=O)c2cc(Br)cc(/C=C/C(=O)O)c2)cc1
[1]
  IC50: > 100 µM
[2]
  Ratio IC50: > 333
[30]
  IC50: > 100 µM

## CC(C)=CCc1cc(/C=C/C#N)cc(C(=O)NCc2ccc(C)cc2)c1
[23]
  IC50: 2.7 µM

## Cc1ccc(CNC(=O)c2cc(/C=C/C(=O)O)cc(-c3ccc4cccnc4c3)c2)cc1
[2]
  Ratio IC50: 109
